≈ marks a conversion by molar mass, not a printed value. Like-named read-outs stand apart in the source and are kept apart here.
Experiments:
[1] = system: S. aureus ATCC 13709 (Meth^S); test: Broth microdilution MIC (NCCLS); format: cell-based; conditions: Staphylococcus aureus, ATCC13709, Mueller-Hinton Broth, 24 h at 35 °C
Method: (§1) Compounds were evaluated for antimicrobial activity against a panel of bacterial strains using a broth microdilution assay performed as recommended by the NCCLS (1). The minimum inhibitory concentration (MIC) was defined as the lowest concentration of drug which prevented the growth of the bacteria. The following 16 organisms constituted the primary panel of evaluation:
(§2) For this primary panel, the assay was performed in Mueller-Hinton Broth (MHB) with a final bacterial inoculum of 5 x 10^5 CFU/mL (from an early-log phase culture) and a final volume of 100 µL. Control drugs, including imipenem, vancomycin, Penicillin G, dicloxacillin (vs. MSSA ATCC29213 only), and new compounds were prepared at a concentration equivalent to 2-fold the desired final concentration. Dilution of compounds were prepared directly in the plates by serial 2-fold dilution using a multichannel pipette. Positive and negative growth control were included in each plate.
(§3) The bacterial inocula were prepared as follows. For each strain one isolated colony was used to inoculate a volume of 8 mL of Mueller-Hinton broth and these cultures were incubated overnight (20h) at 35 °C in a shaking incubator. At the exception of Enterococcus strains, culture were then diluted 1:10 and allowed to grow for an additional one hour at 35 °C in a shaking incubator. The inocula were prepared by diluting the early log-phase (1h) cultures 1:1000 with fresh Mueller-Hinton broth. E. faecium and E. faecalis were prepared by diluting overnight cultures 1:333 and 1:666, respectively, with fresh Mueller-Hinton broth . A volume of 50 µL of the inocula was added to each well. […] The exact inocula were determined by applying […] of 10-fold serial dilution of the bacterial suspensions on TSA. After overnight incubation at 35 °C, colony forming units were manually counted.
(§4) Microtiter plates were incubated during 24 h at 35 °C and were read using a microtiterplate reader (Molecular Devices) at 650 nm as well as by visual observation using a microtiterplate reading mirror.

[2] = system: E. faecium ATCC 35667; test: Broth microdilution MIC (NCCLS); format: cell-based; conditions: Enterococcus faecium, ATCC35667, Mueller-Hinton Broth, 24 h at 35 °C
Method: as §1, §2, §3, §4

[3] = system: S. aureus ATCC 29213; test: Broth microdilution MIC (NCCLS); format: cell-based; conditions: Staphylococcus aureus, ATCC29213, Mueller-Hinton Broth, 24 h at 35 °C
Method: as §1, §2, §3, §4

[4] = system: S. aureus ATCC 33593 (Meth^R); test: Broth microdilution MIC (NCCLS); format: cell-based; conditions: Staphylococcus aureus, ATCC33593, Mueller-Hinton Broth, 24 h at 35 °C
Method: as §1, §2, §3, §4

[5] = system: S. aureus PC1 (Meth^S)(lac^+); test: Broth microdilution MIC (NCCLS); format: cell-based; conditions: Staphylococcus aureus, 24 h
Method: as §1, §2, §3, §4

[6] = system: E. faecium VanA (Van^R); test: Broth microdilution MIC (NCCLS); format: cell-based; conditions: Enterococcus faecium, Mueller-Hinton Broth, 24 h at 35 °C
Method: as §1, §2, §3, §4

[7] = system: S. haemolyticus 05 (Meth^R); test: Broth microdilution MIC (NCCLS); format: cell-based; conditions: Staphylococcus haemolyticus, Mueller-Hinton Broth, 24 h at 35 °C
Method: as §1, §2, §3, §4

[8] = system: E. faecalis VanB (Van^R); test: Broth microdilution MIC (NCCLS); format: cell-based; conditions: Enterococcus faecalis, Mueller-Hinton Broth, 24 h at 35 °C
Method: as §1, §2, §3, §4

[9] = system: P. aeruginosa ATCC 27853; test: Broth microdilution MIC (NCCLS); format: cell-based; conditions: Pseudomonas aeruginosa, ATCC27853, Mueller-Hinton Broth, 24 h at 35 °C
Method: as §1, §2, §3, §4

[10] = system: E. coli ATCC25992; test: Broth microdilution MIC (NCCLS); format: cell-based; conditions: Escherichia coli, Mueller-Hinton Broth, 24 h at 35 °C
Method: as §1, §2, §3, §4

[11] = system: S. aureus Col8A(Meth^S)(lac^-); test: Broth microdilution MIC (NCCLS); format: cell-based; conditions: Staphylococcus aureus, Mueller-Hinton Broth, 24 h at 35 °C
Method: as §1, §2, §3, §4

[12] = system: S. aureus Spain #356 (Meth^R); test: Broth microdilution MIC (NCCLS); format: cell-based; conditions: Staphylococcus aureus, Mueller-Hinton Broth, 24 h at 35 °C
Method: as §1, §2, §3, §4

[13] = system: S. aureus 76 (Meth^R)(lac^+); test: Broth microdilution MIC (NCCLS); format: cell-based; conditions: Staphylococcus aureus, Mueller-Hinton Broth, 24 h at 35 °C
Method: as §1, §2, §3, §4

[14] = system: E. faecalis ATCC 29212; test: Broth microdilution MIC (NCCLS); format: cell-based; conditions: Enterococcus faecalis, ATCC29212, Mueller-Hinton Broth, 24 h at 35 °C
Method: as §1, §2, §3, §4

[15] = system: E. faecium A491 (Amp^R); test: Broth microdilution MIC (NCCLS); format: cell-based; conditions: Enterococcus faecium, Mueller-Hinton Broth, 24 h at 35 °C
Method: as §1, §2, §3, §4

[16] = In vitro stability of compounds in rat serum; format: in vitro ADME; conditions: % loss after 60 min exposure to rat serum as determined by HPLC; 37 °C
Method: In general, compounds from the class of 7-acylamino-3-heteroarylthio-3-cephem carboxylic acids have higher chemical reactivity and lower stability towards chemical or enzymatic decomposition than most typical cephalosporins. […] Results shown in Table 2 represent percentage loss of the initial amount of cephalosporin compound upon 60 min incubation in rat serum.
Procedure for measuring degree of degradation of cephalosporin compounds in rat serum was as follows:
Fresh control rat serum (heparinized and stored frozen) is preincubated at 37 °C for 15 min in a shaking water bath. pH is measured using test strips. 25 µL of a 2 mg/mL solution cephalosporin compound (in water) of is then added to each matrix to make 1000 µL. Solutions were incubated at 37 °C. 100ul of solution was taken out at time = 0, 15, 30, and 60 min post dose and added 200 µL 4% trichloroacetic acid, vortexed, and centrifuged for 10 min at 14,000 rpm in an Eppendorfmicrocentrifuge. 25 µL of each supernatant was injected onto HPLC. Experiment was repeated using 25 µL of a 0.2 mg/mL cephalosporin compound. Degradation is measured as the percentage of HPLC peak area at time t relative to peak area at time 0.
HPLC conditions: Beckman Ultrasphere C18 column. 5u. 4.6mm x 25cm. 1 mL/min of 95% 0.1 M ammonium acetate, pH 6, 5% ACN going to 75% buffer/organic over 20min. UV monitored at 254 and 280 nm.

[17] = system: S. aureus ATCC 13709 (Smith diffuse); test: Murine model for lethal bacteremic peritonitis (septicemia); format: in vivo, mice; conditions: for ED50: Staphylococcus aureus, ATCC13709, sc, read-out: Efficacy in murine septicemia ED50; for Efficacy in murine septicemia %survival: subcutaneously at 0 and 2 hrs post-challenge
Method: 10 mice/group were injected intraperitoneally with 2.98x10^7 cfu S. aureus ATCC 13709 (Smith diffuse) and treated at 0 and 2hrs post-challenge with serial two-fold doses of new cephalosporin antibiotic, imipenem and vancomycin subcutaneously in order to determine the ED50. Male Swiss-Webster mice weighing originally 24.2 - 26.1 g were obtained from Charles Rivers Labs, Hollister, CA. Mice were housed 10 per cage and given free access to water and mouse chow.
Staphylococcus aureus ATCC 13709 (Smith diffuse) was grown overnight at 37 °C in Brain-heart Infusion broth (BHIB). The following morning, it was subcultured to fresh BHIB and incubated for 4-5h at 37 °C. The log-phase growth cells were washed once with physiological saline and adjusted to the desired concentration by correlation of absorbency at OD 600 nm with predetermined plate counts (NCCLS, 1994). The cell suspension was mixed with an equal volume of sterile 14% hog-gastric mucin (2). Inoculum was kept in an ice bath until used (<1h).
Mice were challenged via an injection of 0.5 mL bacterial suspension intraperitoneally. The bacterial challenge was 2.98 x 10^7 cfu/mouse.
Imipenem (Primaxin IV; Lot 7294A), vancomycin (Vancocin; Lot 8MU60W), and new cephalosporin antibiotic were prepared by serial two-fold dilutions to concentrations of 0.078 - 0.005 mg/mL, 1.2 - 0.075 mg/mL, 0.3 - 0.02 mg/mL, 0.3 - 0.02 mg/mL and 0.3 - 0.02 mg/mL respectively in sterile water (1). All antibiotics were administered subcutaneously in 0.1 mL volumes at 0 and 2 hours post-challenge. Concentrations of all compounds are based on the weight of the bioactive ingredients.
The 50% effective dose (ED50) was calculated by the probit method (3) utilizing a program entitled Probit (Nycomed-Salutar).

[18] = Serum binding determination by ultrafiltration and HPLC; format: in vitro ADME; conditions: % of compound bound to serum as determined by HPLC; human serum
Method: The more accurate measurement of binding of selected cephalosporin compounds was performed using HPLC as described below. […] Serum is placed in a shaking water bath preheated to 37 ± 2 °C for 5 to 10 minutes to heat serum to 37 °C. Serum pH is measured and recorded, while serum is 37 °C using pH paper. Measurements are taken twice, 3 minutes apart. […] After blowing for several minutes, serum is heated to 37 °C and measurements are taken twice, 3 minutes apart using pH paper to determine the pH. Store at 4 °C. The serum is stable for 7 days. Always check the pH before each use. • 2. Before any centrifugation, the centrifuge temperature must be adjusted to 25 ± 2 °C. Preheat the centrifuge by spinning for 45 minutes at the same speed to be used in the assay (1900 g) with two tubes of water in the rotor and the temperature set to 25 °C. When the centrifuge stops immediately check the temperature of the tubes of water with a calibrated thermometer. The temperature of the tubes of water must be 25 ± 2 °C. […] Continue spinning and measuring the temperature and adjusting the setting until the temperature is 25 ± 2 °C. • 3. Prepare blank ultrafiltrate by pipetting blank pH 7.4 serum into an Amicon Centrifree Micropartition devices, centrifuge: fixed angle rotor, 1900 g, 25 °C for 20 minutes. Heat ultrafiltrate in a shaking water bath preheated to 37 °C. Measure ultrafiltrate pH and adjust to the pH of the serum (7.4 ± 0.2). • 4. Pipette 190 ul of blank ultrafiltrate into a set of labeled 1.7 mL polypropylene microfuge tubes for 3 of each level. Pipette 10 µL of the appropriate standard stock 50, 200, 1000 µg/mL to make standards 2.5, 10, and 50 µg/mL respectively. Vortex each tube well. One set of the standard samples are mixed 1:1 with 0.2 M acetic acid and injected onto the HPLC (MSTD). These samples are the membrane standards and will be used to compare to the other standards. Pipette 190 ul of ultrafiltrate and spike with 10 ul of whatever solution (e.g. water) the standards are prepared in to make the zero standard. • 5. Pipette 475 µL of blank heated pH 7.4 serum into a set of labeled 1.7 mL polypropylene microfuge tubes for 2 of each (Serum A and Serum B). Pipette 25 µL of the 1000 µg/mL standard stock into each tube, vortex each tube well to make serum standard 50 µg/mL. Remove 100 µL of serum and deproteinate with 200 µL 4% TCA while vortexing to make serum time 0 (serum 50, T0). Place serum tubes in a shaking water bath at 37 °C for 10 minutes. Pipet 100 µL of serum out and deproteinate with 200 µL 4% TCA, to make serum time 10 min (serum 50, T10). Pipet 200 ul serum standard 50 µg/mL into an ultrafiltration device, which is not treated with TCA, to determine free drug in samples (Rat Serum 50). • 6. Transfer serum and standard samples to labeled Amicon Centrifree Micropartition filters, and centrifuge: 1900 g, 25 °C for 10 minutes. The extracted serum samples (T0 and T 10) are spun down and supernatant is loaded into HPLC vials. • 7. 100 µL of ultrafiltrate sample and 100 µL of 0.2 M acetic acid were mixed together to stabilize the compound in ultrafiltrate. • 8. Transfer entire stabilized ultrafiltrate solution to a labeled autoinjector HPLC vial cap with Teflon septa, and inject on HPLC.
Peak height or area is used in a weighted linear regression.
High levels of binding to human serum proteins limits the concentration of compound available for antibacterial activity in the body.

## C[C@@H](O)[C@H]1C(=O)N2C(C(=O)O)=C(SCCN=CN)C[C@H]12 [Imipenem, reference compound]
[1]
  MIC: ≤ 0.008 µg/mL
[2]
  MIC: 4 µg/mL (≈ 13.4 µM)
[3]
  MIC: ≤ 0.008 µg/mL
[4]
  MIC: 32 µg/mL (≈ 107 µM)
[5]
  MIC: 0.015 µg/mL (≈ 0.0501 µM)
[6]
  MIC: 4 µg/mL (≈ 13.4 µM)
[7]
  MIC: 64 µg/mL (≈ 214 µM)
[8]
  MIC: 0.5 µg/mL (≈ 1.67 µM)
[9]
  MIC: 1 µg/mL (≈ 3.34 µM)
[10]
  MIC: ≤ 0.25 µg/mL
[11]
  MIC: 0.015 µg/mL (≈ 0.0501 µM)
[12]
  MIC: 32 µg/mL (≈ 107 µM)
[13]
  MIC: 32 µg/mL (≈ 107 µM)
[14]
  MIC: ≤ 0.25 µg/mL
[15]
  MIC: > 128 µg/mL
[16]
  degraded at 1 h: 20%
[17]; mice, S. aureus ATCC 13709 ip, subcutaneous treatment at 0 and 2 hrs post-challenge, probit method, no unit given for ED50 (doses in mg/kg)
  ED50: 0.07 mg/kg

## CN[C@H](CC(C)C)C(=O)N[C@H]1C(=O)N[C@@H](CC(N)=O)C(=O)N[C@H]2C(=O)N[C@H]3C(=O)N[C@H](C(=O)N[C@H](C(=O)O)c4cc(O)cc(O)c4-c4cc3ccc4O)[C@H](O)c3ccc(c(Cl)c3)Oc3cc2cc(c3O[C@@H]2O[C@H](CO)[C@@H](O)[C@H](O)[C@H]2O[C@H]2C[C@](C)(N)[C@H](O)[C@H](C)O2)Oc2ccc(cc2Cl)[C@H]1O [Van, Vancomycin]
[18]
  fraction unbound: 0.45
[17]; Dose 5 mg/kg
  Efficacy in murine septicemia %survival: 5/100%
[17]; Dose 10 mg/kg
  Efficacy in murine septicemia %survival: 10/100%
[17]
  ED50: 2.41 mg/kg

Source: patent publication EP1222194B1, “7-ACYLAMINO-3-HETEROARYLTHIO-3-CEPHEM CARBOXYLIC ACID ANTIBIOTICS AND PRODRUGS THEREOF” (priority 1999, dated 2001)
